Measurements as given in EP4775208A1, “USE OF PRMT5 INHIBITOR IN TREATMENT OF TUMORS OR CANCERS” (Apeiron Therapeutics (Hong Kong) Ltd., priority 2023, dated 2025).

Columns and labels:
[1] = tested on: HCT-116 MTAP wild-type cells; experiment: Inhibition of proliferation of HCT-116 MTAP wild-type cells (Cell-Titer Glo); assay type: cell-based; conditions: 8 days
Procedure: Test 2: Compound's inhibitory activity on proliferation of HCT-116 MTAP wild-type cells.
Materials and Cells: HCT-116 MTAP wild-type cells obtained from Kyinno Bio (China); RPMI-1640 medium, fetal bovine serum, and penicillin-streptomycin purchased from Thermo Fisher Scientific (America); 384-well plates from PerkinElmer (America); Cell-Titer Glo assay kit from Promega (America).
Cell Culture: HCT116 MTAP wild-type cells were cultured in RPMI 1640 medium containing 10% fetal bovine serum and 1% penicillin-streptomycin at 37°C, 5% CO2. Only cells in logarithmic growth phase were used for experiments.
(§1) Cell Proliferation Inhibition Assay: The compound's inhibitory activity on HCT-116 MTAP wild-type cells was assessed using the Cell-Titer Glo assay kit. Adjusting cell concentration, 40 µL was seeded into a 384-well plate and cultured overnight at 37°C, 5% CO2. Each well received 40 nL of the compound, achieving concentrations from 0 to 10,000 nM (starting concentration 10,000 nM, 3-fold dilution, 10 points), with 0.1% DMSO. The cell plate was incubated for 8 days at 37°C, 5% CO2. Cell-Titer Glo reagent (40 µL) was added to measure cell viability.

[2] = tested on: HCT-116 MTAP(-/-) deficient cells; experiment: Inhibition of proliferation of HCT-116 MTAP(-/-) deficient cells (Cell-Titer Glo); assay type: cell-based; conditions: 8 days
Procedure: Test 1: Compound's inhibitory activity on proliferation of HCT-116 MTAP(-/-) deficient cells.
Materials and Cells: HCT-116 MTAP(-/-) deficient cells obtained from Kyinno Bio (China); RPMI-1640 medium, fetal bovine serum, and penicillin-streptomycin purchased from Thermo Fisher Scientific (America); 384-well plates from PerkinElmer (America); Cell-Titer Glo assay kit from Promega (America).
Cell Culture: HCT116 MTAP(-/-) deficient cells were cultured in RPMI 1640 medium containing 10% fetal bovine serum and 1% penicillin-streptomycin at 37°C, 5% CO2. Only cells in logarithmic growth phase were used for experiments.
as §1, with “MTAP(-/-) deficient” for “MTAP wild-type”

Molecule | IC50 ([1]; Homo sapiens, HCT-116, 192 h) | IC50 ([2]; Homo sapiens, HCT-116, 192 h) | IC50 [1] | IC50 [2]
4-amino-N-methyl-N-(8-(trifluoromethyl)-1, 3,4,5-tetrahydrobenzo [c]oxepin-5-yl)imidaz o[1,5-a]quinoxaline-8 -carboxamide [Example 44] | – | – | > 10000 nM | 310 nM
4-amino-N-methyl-N-((1S,4S)-1-methyl-7-( trifluoromethyl)isochr oman-4-yl)imidazo[1, 5-a]quinoxaline-8-car boxamide [Example 105] | – | – | 2190 nM | 66.1 nM
Nc1nc2ccc(C(=O)N(C3CC3)[C@@H]3COc4cc(C(F)(F)F)ccc43)cc2n2cncc12 (single isomer, unassigned) [Example 84] | 1470 nM | 21.9 nM | – | –
Cc1ncn2c1c(N)nc1ccc(C(=O)N(C3CC3)[C@H]3COc4cc(C(F)(F)F)ccc43)cc12 (single isomer, unassigned) [Example 85] | 781 nM | 791 nM | – | –
Cc1ncn2c1c(N)nc1ccc(C(=O)N(C3CC3)[C@@H]3COc4cc(C(F)(F)F)ccc43)cc12 (single isomer, unassigned) [Example 86] | 1330 nM | 61.1 nM | – | –
CN(C(=O)c1ccc2nc(N)c3cncn3c2c1)[C@H]1COCc2ccc(C(F)(F)F)cc21 (single isomer, unassigned) [Example 93] | > 10000 nM | > 3000 nM | – | –
CN(C(=O)c1ccc2nc(N)c3cncn3c2c1)[C@@H]1COCc2ccc(C(F)(F)F)cc21 (single isomer, unassigned) [Example 94] | 5170 nM | 80.8 nM | – | –
C[C@@H]1OC[C@@H](N(C)C(=O)c2cc3c(cn2)nc(N)c2cncn23)c2ccc(C(F)(F)F)cc21 (single isomer, unassigned) [Example 97] | 1550 nM | 29.8 nM | – | –
CN(C(=O)c1ccc2nc(N)c3cncn3c2c1)[C@H]1CSc2cc(C(F)(F)F)ccc21 (single isomer, unassigned) [Example 101] | > 10000 nM | 2190 nM | – | –
CN(C(=O)c1ccc2nc(N)c3cncn3c2c1)[C@@H]1CSc2cc(C(F)(F)F)ccc21 (single isomer, unassigned) [Example 102] | 1990 nM | 7.9 nM | – | –
CN(C(=O)c1cc2c(cc1F)nc(N)c1cncn12)[C@H]1COC(C)(C)c2cc(C(F)(F)F)ccc21 (single isomer, unassigned) [Example 134] | 5890 nM | 623 nM | – | –
CN(C(=O)c1cc2c(cc1F)nc(N)c1cncn12)[C@@H]1COC(C)(C)c2cc(C(F)(F)F)ccc21 (single isomer, unassigned) [Example 135] | 1960 nM | 9.3 nM | – | –
Cc1ncn2c1c(N)nc1ccc(C(=O)N(C)[C@@H]3COc4cc(C(F)(F)F)ccc43)cc12 [Example 6, (S)-4-amino-N,3-dime thyl-N-(6-(trifluoromethyl)-2,3-dihydrobenzofuran-3-yl)imidazo[1 ,5-a]quinoxaline-8-car boxamide] | 993 nM | 10.6 nM | – | –
CN(C(=O)c1ccc2nc(N)c3cncn3c2c1)C1COCc2ccc(C(F)(F)F)cc21 (centres unmarked) [Example 8, 4-amino-N-methyl-N-(6-(trifluoromethyl)isochroman-4-yl)imidaz o[1,5-a]quinoxaline-8-carboxamide] | 6480 nM | 106 nM | – | –
CN(C(=O)c1ccc2nc(N)c3cc(F)cn3c2c1)[C@@H]1COc2cc(Br)ccc21 [Example 11, (S)-4-amino-N-(6-bromo-2,3-dihydrobenzof uran-3-yl)-2-fluoro-N -methylpyrrolo[1,2-a] quinoxaline-8-carbox amide] | 6410 nM | 1770 nM | – | –
CN(C(=O)c1cc2c(cc1Cl)nc(N)c1cncn12)[C@@H]1COc2cc(Br)ccc21 [Example 12, (S)-4-amino-N-(6-bromo-2,3-dihydrobenzof uran-3-yl)-7-chloro-N -methylimidazo[1,5-a] quinoxaline-8-carbox amide] | 1110 nM | 6.1 nM | – | –
CN(C(=O)c1cc2c(cc1F)nc(N)c1cncn12)C1COC(C)(C)c2cc(C(F)(F)F)ccc21 (centres unmarked) [Example 13, 4-amino-N-(1,1-dimethyl-7-(trifluoromethyl)isochroman-4-yl)-7-f luoro-N-methylimidaz o[1,5-a]quinoxaline-8-carboxamide] | 2510 nM | 15.7 nM | – | –
CC1OC[C@@H](N(C)C(=O)c2cc3c(cn2)nc(N)c2cncn23)c2ccc(Br)cc21 (stereo partly drawn) [Example 17, 4-amino-N-((4S)-7-bromo-1-methylisochroman-4-yl)-N-methyli midazo[1,5-a]pyrido[3,4-e]pyrazine-8-carb oxamide] | 243 nM | 4.2 nM | – | –
CN(C(=O)c1ccc2nc(N)c3cncn3c2c1)[C@@H]1CCc2cc(C(F)(F)F)ccc21 [Example 18, (R)-4-amino-N-methy 1-N-(5-(trifluoromethy 1)-2,3-dihydro-1H-inden-1-yl)imidazo[1,5-a]quinoxaline-8-carbox amide] | 4330 nM | 14.5 nM | – | –

More lines, main results first:

IC50 ([1]; Homo sapiens, HCT-116, 192 h) | IC50 ([2]; Homo sapiens, HCT-116, 192 h) | Molecule | IC50 [1] | IC50 [2]
> 10000 nM | 211 nM | C[C@@H]1OC[C@@H](N(C)C(=O)c2ccc3nc(N)c4cncn4c3c2)c2ccc(F)cc21 (single isomer, unassigned) [Example 95] | – | –
7130 nM | 928 nM | C[C@@H]1OC[C@@H](N(C)C(=O)c2ccc3nc(N)c4cncn4c3c2)c2cc(F)ccc21 (single isomer, unassigned) [Example 99] | – | –
3580 nM | 68.3 nM | C[C@H]1OC[C@@H](N(C)C(=O)c2ccc3nc(N)c4cncn4c3c2)c2cc(F)ccc21 (single isomer, unassigned) [Example 100] | – | –
> 10000 nM | 2310 nM | CN(C(=O)c1ccc2nc(N)c3cncn3c2c1)C1COc2ccccc21 (centres unmarked) [Example 1, 4-amino-N-(2,3-dihydrobenzofuran-3-yl)-N-methylimidazo[1,5-a]quinoxaline-8-carboxamide] | – | –
6670 nM | 61 nM | CN(C(=O)c1ccc2nc(N)c3cncn3c2c1)[C@@H]1COc2cc(-c3cnn(C)c3)ccc21 [Example 2, (S)-4-amino-N-methy 1-N-(6-(1-methyl-1H-pyrazol-4-yl)-2,3-dihydrobenzofuran-3-yl)i midazo[1,5-a]quinoxa line-8-carboxamide] | – | –
2250 nM | 23.4 nM | CN(C(=O)c1ccc2nc(N)c3cncn3c2c1)[C@@H]1COc2cc(Br)ccc21 [Example 3, (S)-4-amino-N-(6-bromo-2,3-dihydrobenzof uran-3-yl)-N-methyli midazo[1,5-a]quinoxaline-8-carboxamide] | – | –
280 nM | 4 nM | CC1OC[C@@H](N(C)C(=O)c2ccc3nc(N)c4cncn4c3c2)c2ccc(C(F)(F)F)cc21 (stereo partly drawn) [Example 5, 4-amino-N-methyl-N-((4S)-1-methyl-7-(trifluoromethyl)isochroman-4-yl)imidazo[1,5-a]quinoxaline-8-carbox amide] | – | –
> 10000 nM | 141 nM | CN(C(=O)c1ccc2nc(N)c3cncn3c2c1)C1COc2nc(C(F)(F)F)ccc21 (centres unmarked) [Example 7, 4-amino-N-methyl-N-(6-(trifluoromethyl)-2,3-dihydrofuro[2,3-b]pyridin-3-yl)imidazo[1,5-a]quinoxaline-8-car boxamide] | – | –
2140 nM | 41.1 nM | CC1OC[C@@H](N(C)C(=O)c2ccc3nc(N)c4cncn4c3c2)c2ccc(F)cc21 (stereo partly drawn) [Example 9, 4-amino-N-((4S)-7-fluoro-1-methylisochroman-4-yl)-N-methyli midazo[1,5-a]quinoxa line-8-carboxamide] | – | –
3110 nM | 31.2 nM | CN(C(=O)c1ccc2nc(N)c3cncn3c2c1)[C@@H]1COc2cc(C#N)ccc21 [Example 10, (S)-4-amino-N-(6-cyano-2,3-dihydrobenzof uran-3-yl)-N-methyli midazo[1,5-a]quinoxa line-8-carboxamide] | – | –
2230 nM | 23.2 nM | CC1OC[C@@H](N(C)C(=O)c2ccc3nc(N)c4cncn4c3c2)c2cc(C(F)(F)F)ccc21 (stereo partly drawn) [Example 19, 4-amino-N-methyl-N-((4S)-1-methyl-6-(trifluoromethyl)isochroman-4-yl)imidazo[1,5-a]quinoxaline-8-carbox amide] | – | –
> 10000 nM | > 3000 nM | CN(C(=O)c1ccc2nc(N)c3cncn3c2c1)[C@@H]1COc2cc(P(C)(C)=O)ccc21 [Example 20, (S)-4-amino-N-(6-(dimethylphosphoryl)-2,3-dihydrobenzofuran-3-yl)-N-methylimidaz o[1,5-a]quinoxaline-8-carboxamide] | – | –
